Test results published in patent US20080248008A1, “Inhibitors of Protein Kinase a Anchoring” (priority 2004, published 2008).

What was measured:
PKA type I = target: T1, PKA type I (Mus musculus, UniProt Q9DBC7); assay: Solid phase immobilization from Y-1 adrenal cell lysate, PKA type I; format: binding; conditions: overnight
T1 construct: host or cells: mouse Y-1 adrenocortical cells (lysate)
Experimental: Solid phase assay and cell lysate. 5×10^6 Y1 cells or 20×10^6 Jurkat T cells lysed in 150 mM NaCl, 1% NP-40, 0.5% deoxycholate, 0.1% SDS and 50 mM Tris HCl (7.8) were incubated overnight at 4° C. with MEME3 and SM3 peptides synthesized on membranes (Autospot, Intavis, AG). The membranes were washed two times for 10 minutes in lysis buffer and thereafter in high salt lysis buffer (1 M NaCl) before boiling in SDS-PAGE loading buffer.
A solid phase immobilization assay (schematic illustration in FIG. 24, left panel) was used to analyse endogenous PKA binding to MEME3. MEME3 and SM3 peptides synthesized in triplicate on membranes were incubated overnight in lysate from Y-1 adrenal cells. Thereafter bound proteins were eluted, subjected to 10% PAGE and analysed by immunoblotting using specific antibodies against PKA-RIα, PKA-C and PKA-RIIα subunits.

Human RIα = target: T2, Human RIα (Homo sapiens, UniProt P10644); assay: R-overlay with human RIα; format: binding; conditions: equal amounts of human or bovine RIα, n=3
T2 construct: made in house; host or cells: E. coli BL21 (B121 [sic])
T2 sequence (P10644 whole entry): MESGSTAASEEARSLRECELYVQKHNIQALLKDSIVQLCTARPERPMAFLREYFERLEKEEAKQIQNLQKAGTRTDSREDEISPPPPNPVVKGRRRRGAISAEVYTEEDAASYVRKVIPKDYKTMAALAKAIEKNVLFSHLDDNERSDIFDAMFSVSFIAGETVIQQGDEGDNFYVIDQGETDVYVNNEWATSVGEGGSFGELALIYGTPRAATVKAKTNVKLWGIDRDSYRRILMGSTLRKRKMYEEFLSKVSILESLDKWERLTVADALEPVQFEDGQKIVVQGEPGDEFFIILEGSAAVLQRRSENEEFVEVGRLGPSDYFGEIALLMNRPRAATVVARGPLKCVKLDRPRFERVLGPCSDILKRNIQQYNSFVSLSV
Experimental: R-overlay. R-overlays were conducted as described, using ^32P-labeled recombinant murine RII (Hausken, Z. E., et al., 1998 in Protein Targeting Protocols, ed. Clegg, R. A. (Humana, Totowa, N.J.), Vol. 88, pp. 47-64) or recombinant bovine RI (A98S) or by cold RI-overlay where bound RIα was detected by Western blot. Cold RI-overlay was performed by incubating the membranes with 250 nM RI overnight at 4° C., then the membranes were washed five times in TBST for 5 min. Detection of RI was performed using an anti-RI rabbit polyclonal antibody (Santa Cruz) at a concentration of 0.2 μg/μl for 1 hour at 4° C. Then the membranes were washed five times for 5 minutes in PBS followed by incubation with HRP-conjugated anti-rabbit IgGs (1:5000) for 1 hour at 4° C. The membranes were washed in PBS as described above before detection by Supersignal West Dura Extended Duration Substrate (Pierce).
The MEME3 sequence was synthesized on a membrane and RIα binding analysed by R-overlay using equal amounts of either human or bovine RIα (FIG. 3C).

PKA-C subunit = assay: Coimmunoprecipitation of PKA kinase activity from HEK293 cells; format: biochemical, human
Experimental: Coimmunoprecipitation of PKA kinase activity. Cells at 50-80% confluency were transfected by using FuGENE (Roche Biochemicals). Five micrograms of plasmid DNA (GFP-AKAP-is-V5His, GFP-Scrambled-AKAP-is-V5His, GFP-MEME3-V5H is-and GFP-Scrambled-MEME3-V5His) was transfected into HEK293-cells. Cells were lysed 24 h later in 20 mM Hepes, pH 7.5/150 mM NaCl/1 mM EDTA/1% Triton X-100. MEME3 and the other peptides was immunoprecipitated. PKA kinase assays were performed by the filter paper assay (Corbin and Reimann, 1974, Methods Enzymol., 38, 287-294). The protein kinase inhibitor (PKI) residues 5-24 peptide was used as a specific inhibitor of the kinase (Scott et al., 1986, PNAS, 83, 1613-1616).
The specific activity (pmol/min per IP) of PKA-C subunit from HEK293 cells co-precipitating with chimeric MEME3 fusion protein was measured by a phosphotransferase assay using Kemptide as a substrate (Kemp et al., J. Biol. Chem. 252, p 4888-4894, 1977; Roskoski, R. Methods Enzymol. 99, p 3-6, 1983) in the absence and presence of cAMP (FIG. 12). Specific PKA activity was abrogated when PKI (5-24) peptide (10 μM) was added to the reaction mixture. The MEME3 fusion protein coprecipitated 17-fold more PKA-C activity than the RIIα-selective peptide, AKAP-is (IS) (Alto et al., 2003, supra). […] The accumulated data from three independent experiments are shown.

[1] = Circular dichroism, α helical content; format: physicochemical
Experimental: Circular Dichroism. CD spectra were recorded by using a Jasco J-810 spectropolarimeter (Jasco). Measurements were performed at 25° C. by using a quartz cuvette (Starna) with a path length of 0.1 cm. All the measurements were performed with a peptide concentration of 0.10 mg/ml in PBS containing 0-75% trifluoroethanol (TFE). Samples were scanned five times at 20 nm/min with a bandwidth of 1 nm and a response time of 1 s, over the wavelength range 190 to 260 nm. The data were averaged, and the spectrum of a peptide-free control sample was subtracted. The α helical content was calculated after smoothing (means-movement method; convolution width, 13) from ellipticity data, using the neural network program CDNN version 2.1. All measurements were conducted three times.

Molecule	immobilization of PKA type I (PKA-RIα, PKA-C) (PKA type I)	human RIα binding (R-overlay) (Human RIα)	coprecipitated PKA-C activity relative to AKAP-is (IS) (PKA-C subunit; Kemptide substrate, three experiments) [fold]	helicity ([1]; 50% TFE) [%]	helicity ([1]; absence of TFE) [%]	coprecipitated kinase activity (PKA-C subunit)
CC[C@H](C)[C@H](NC(=O)[C@H](CCC(N)=O)NC(=O)[C@H](CC(=O)O)NC(=O)[C@H](C)NC(=O)[C@H](CC(C)C)NC(=O)[C@H](CCC(N)=O)NC(=O)[C@H](CC(N)=O)NC(=O)[C@H](C)NC(=O)[C@H](Cc1ccc(O)cc1)NC(=O)[C@H](CCC(N)=O)NC(=O)[C@H](CCC(=O)O)NC(=O)[C@@H](N)CC(C)C)C(=O)N[C@H](C(=O)N[C@@H](CCCCN)C(=O)N[C@@H](CCC(=O)O)C(=O)N[C@@H](C)C(=O)N[C@H](C(=O)N[C@@H](CCC(=O)O)C(=O)N[C@@H](CCCCNC(=O)c1ccc2c(c1)C(=O)OC21c2ccc(O)cc2Oc2cc(O)ccc21)C(N)=O)[C@@H](C)O)[C@@H](C)CC [MEME3]	Only PKA type I was immobilized	bound with similar affinity to MEME3 as did bovine RIα	17	49	12	–
IEKELAQQYQNADAITLE [SM3, scrambled MEME3 negative control peptide, reference compound]	Neither PKA-RIα, PKA-C nor PKA-RIIα were immobilized	no RIα binding at all	–	29	7	No kinase activity was detected
LEQYANQLADQIIKEATERRRRRRRRRrr [MEME3-Arg11]	–	–	–	39	–	–
